Test results taken from patent US6706709B2, “Indolinone derivatives as protein kinase/phosphatase inhibitors” (Sugen, Inc., priority 2000, dated 2004).

Tests used:
[1] = target: GST-Flk1 (UniProt P35918); experiment: GST-FLK-1 bioassay (bio flkGST); format: biochemical
Description: This assay analyzes the tyrosine kinase activity of GST-Flk1 on poly glu tyr peptides.
2. poly glu tyr 4:1, lyophilizate (Sigma Catalog # P0275). Prepare 1 mg/mL poly glu tyr in sterile PBS and store in 1 ml aliquots at −20° C.
3. Preparation of poly glu tyr (pEY) coated assay plates: Coat 2 μg/well of poly glu tyr (pEY) in 100 μL PBS at room temperature for 2 hours or at +4° C. overnight. Cover plates well to prevent evaporation.
4. PBS Buffer: To make 1 liter of a 1× working solution, mix […], 1.15 g NA2HPO4, 0.2 g KCl and 8 g NaCl in approx. 900 mL dH2O. When all reagents have dissolved, adjust the pH to 7.2 with HCl. Bring total volume to 1L with dH2O.
5. PBS-Tw Buffer: To 1L of PBS Buffer, add […] Tween-20. Stir until dissolved.
6. TBB-Blocking Buffer: To make one liter of a 1× working solution, mix 1.21 g TRIS, 8.77 g NaCl, 1 mL TWEEN-20 in approximately 900 mL dH2O. Adjust pH to 7.2 with HCl. Add 10 g BSA, stir to dissolve. Bring total volume to 1 L with dH2O. Filter to remove particulate matter.
7. 1% BSA in PBS: To make a 1× working solution, add 10 g BSA to approx. 990 mL PBS buffer, stir to dissolve. Adjust total volume to 1 L with PBS buffer, filter to remove particulate matter.
9. GST-Flk1cd purified from sf9 recombinant baculovirus transformation.
13. Kinase Dilution Buffer (KDB): Mix 10 mL Hepes (pH 7.5), 1 mL of 5 M NaCl, 40 μL of 100 mM NaVO4 and 0.4 mL of 5% BSA in dH2O with 88.56 mL of dH2O.
14. NUNC-96-well V bottom polypropylene plates Applied Scientific Catalog # AS-72092
15. EDTA: Mix 14.12 g ethylenediaminetetraacetic acid (EDTA) to approx. 70 mL dH2O. Add 10N NaOH until EDTA dissolves. Adjust pH to 8.0. Adjust total volume to 100 mL with dH2O.
16. 1° Antibody Dilution Buffer: Mix 10 mL of 5% BSA in PBS buffer with 89.5 mL TBSTw.
17. Anti-phosphotyrosine monoclonal conjugated to horseradish peroxidase (PY99 HRP, Santa Cruz Biotech).
18. 2,2′-Azino-bis(3-ethylbenzthiazoline-6-sulfonic acid (ABTS, Moss, Cat. No. ABST).
1. Coat Corning 96 well ELISA plates with 2 μg of polyEY peptide in sterile PBS as described in step 3 of Materials and Reagents.
2. Remove unbound liquid from wells by inverting plate. Wash once with TBSTw. Pat the plate on a paper towel to remove excess liquid.
3. Add 100 μL of 1% BSA in PBS to each well. Incubate, with shaking, for 1 hr. at room temperature.
5. Soak wells with 50 mM Hepes pH7.5 (150 μL/well).
6. Dilute test compound with dH2O/4% DMSO to 4 times the desired final assay concentration in 96-well polypropylene plates.
7. Add 25 μL diluted test compound to ELISA plate.
8. Add 25 μL of 40 mM MnCl2 with 4×ATP (2 μM) to all wells.
9. Add 25 μL 0.5 M EDTA to negative control wells.
10. Dilute GST-Flk1 0.005 μg (5 ng)/well in KDB. For 50 ml KDB add 100 μL of 0.050 mg/mL GST-Flk1 enzyme.
11. Add 50 μL of diluted enzyme to each well.
12. Incubate, with shaking, for 15 minutes at room temperature.
13. Stop reaction by adding 50 μL of 250 mM EDTA (pH 8.0).
14. Wash 3× with TBSTw and pat plate on paper towel to remove excess liquid.
15. Add 100 μL per well anti-phosphotyrosine HRP conjugate, 1:5,000 dilution in antibody dilution buffer. Incubate, with shaking for 90 min. at room temperature.
16. Wash as described above in step 14.
17. Add 100 μL of room temperature ABTS solution to each well.
18. Incubate, with shaking, for 10 to 15 minutes. Remove any bubbles.
19. Stop reaction by adding 20 μL of 10% SDS.
20. Read assay on Dynatech MR7000 ELISA reader: test filter at 410 nM; reference filter at 630 nM.

[2] = target: T1, EGF Receptor (Homo sapiens, UniProt P00533); experiment: bio EGF (EGF Receptor ELISA); format: biochemical
T1 construct: expressed in transfected cells; host or cells: NIH 3T3/C7 (mouse fibroblasts engineered to express human EGF-R)
Description: EGF Receptor kinase activity in cells genetically engineered to express human EGF-R was measured as described below:
The following materials and reagents were used:
b. 05-101 (UBI) (a monoclonal antibody recognizing an EGFR extracellular domain).
c. Anti-phosphotyrosine antibody (anti-Ptyr) (polyclonal).
d. Detection antibody: Goat anti-rabbit lgG horse radish peroxidase conjugate, TAGO, Inc., Burlingame, Calif.
Keep solution in dark at 4° C. until used.
The following protocol was used:
1. […] Coated plates are good for up to 10 days when stored at 4° C.
2. On day of use, remove coating buffer and replace with blocking buffer (5% Carnation Instant Non-Fat Dry Milk in PBS). Incubate the plate, shaking, at room temperature (about 23° C. to 25° C.) for 30 minutes. Just prior to use, remove blocking buffer and wash plate 4 times with TBST buffer.
2. Choose dishes having 80-90% confluence for the experiment. Trypsinize cells and stop reaction by adding 10% CS DMEM medium. Suspend cells in DMEM medium (10% CS DMEM medium) and centrifuge once at 1000 rpm at room temperature for 5 minutes.
3. Resuspend cells in seeding medium (DMEM, 0.5% bovine serum), and count the cells using trypan blue. Viability above 90% is acceptable. Seed cells in DMEM medium (0.5% bovine serum) at a density of 10,000 cells per well, 100 μL per well, in a 96 well microtiter plate. Incubate seeded cells in 5% CO2 at 37° C. for about 40 hours.
1. Check seeded cells for contamination using an inverted microscope. Dilute drug stock (10 mg/ml in DMSO) 1:10 in DMEM medium, then transfer 5 μL to a test well for a final drug dilution of 1:200 and a final DMSO concentration of 1%. Control wells receive DMSO alone. Incubate in 5% CO2 at 37° C. for one hour.
2. Prepare EGF ligand: dilute stock EGF in DMEM so that upon transfer of 10 μL dilute EGF (1:12 dilution), 25 nM final concentration is attained.
3. Prepare fresh 10 ml HNTG* sufficient for 100 μL per well wherein HNTG* comprises: HNTG stock (2.0 mL), milli-Q H2O (7.3 mL), EDTA, 100 mM, pH 7.0 (0.5 mL), Na3VO4 0.5 M (0.1 mL) and Na4(P2O7), 0.2 M (0.1 mL).
5. After two hours incubation with drug, add prepared EGF ligand to cells, 10 μL per well, to yield a final concentration of 25 nM. Control wells receive DMEM alone. Incubate, shaking, at room temperature, for 5 minutes.
6. Remove drug, EGF, and DMEM. Wash cells twice with PBS. Transfer HNTG* to cells, 100 μL per well. Place on ice for 5 minutes. Meanwhile, remove blocking buffer from other ELISA plate and wash with TBST as described above.
7. With a pipette tip securely fitted to a micropipettor, scrape cells from plate and homogenize cell material by repeatedly aspirating and dispensing the HNTG* lysis buffer. Transfer lysate to a coated, blocked, and washed ELISA plate. Incubate shaking at room temperature for one hour.
8. Remove lysate and wash 4 times with TBST. Transfer freshly diluted anti-Ptyr antibody to ELISA plate at 100 μL per well. Incubate shaking at room temperature for 30 minutes in the presence of the anti-Ptyr antiserum (1:3000 dilution in TBST).
9. Remove the anti-Ptyr antibody and wash 4 times with TBST. Transfer the freshly diluted TAGO 30 anti-rabbit IgG antibody to the ELISA plate at 100 μL per well. Incubate shaking at room temperature for 30 minutes (anti-rabbit IgG antibody: 1:3000 dilution in TBST).
10. Remove detection antibody and wash 4 times with TBST. Transfer freshly prepared ABTS/H2O2 solution to ELISA plate, 100 μL per well. Incubate at room temperature for 20 minutes. ABTS/H2O2 solution: 1.2 μL 30% H2O2in 10 mL ABTS stock.
11. Stop reaction by adding 50 μL 5N H2SO4 (optional), and determine O.D. at 410 nm.
12. The maximal phosphotyrosine signal is determined by subtracting the value of the negative controls from the positive controls. The percent inhibition of phosphotyrosine content for extract-containing wells is then calculated, after subtraction of the negative controls.

T1 sequence (P00533 25-1210): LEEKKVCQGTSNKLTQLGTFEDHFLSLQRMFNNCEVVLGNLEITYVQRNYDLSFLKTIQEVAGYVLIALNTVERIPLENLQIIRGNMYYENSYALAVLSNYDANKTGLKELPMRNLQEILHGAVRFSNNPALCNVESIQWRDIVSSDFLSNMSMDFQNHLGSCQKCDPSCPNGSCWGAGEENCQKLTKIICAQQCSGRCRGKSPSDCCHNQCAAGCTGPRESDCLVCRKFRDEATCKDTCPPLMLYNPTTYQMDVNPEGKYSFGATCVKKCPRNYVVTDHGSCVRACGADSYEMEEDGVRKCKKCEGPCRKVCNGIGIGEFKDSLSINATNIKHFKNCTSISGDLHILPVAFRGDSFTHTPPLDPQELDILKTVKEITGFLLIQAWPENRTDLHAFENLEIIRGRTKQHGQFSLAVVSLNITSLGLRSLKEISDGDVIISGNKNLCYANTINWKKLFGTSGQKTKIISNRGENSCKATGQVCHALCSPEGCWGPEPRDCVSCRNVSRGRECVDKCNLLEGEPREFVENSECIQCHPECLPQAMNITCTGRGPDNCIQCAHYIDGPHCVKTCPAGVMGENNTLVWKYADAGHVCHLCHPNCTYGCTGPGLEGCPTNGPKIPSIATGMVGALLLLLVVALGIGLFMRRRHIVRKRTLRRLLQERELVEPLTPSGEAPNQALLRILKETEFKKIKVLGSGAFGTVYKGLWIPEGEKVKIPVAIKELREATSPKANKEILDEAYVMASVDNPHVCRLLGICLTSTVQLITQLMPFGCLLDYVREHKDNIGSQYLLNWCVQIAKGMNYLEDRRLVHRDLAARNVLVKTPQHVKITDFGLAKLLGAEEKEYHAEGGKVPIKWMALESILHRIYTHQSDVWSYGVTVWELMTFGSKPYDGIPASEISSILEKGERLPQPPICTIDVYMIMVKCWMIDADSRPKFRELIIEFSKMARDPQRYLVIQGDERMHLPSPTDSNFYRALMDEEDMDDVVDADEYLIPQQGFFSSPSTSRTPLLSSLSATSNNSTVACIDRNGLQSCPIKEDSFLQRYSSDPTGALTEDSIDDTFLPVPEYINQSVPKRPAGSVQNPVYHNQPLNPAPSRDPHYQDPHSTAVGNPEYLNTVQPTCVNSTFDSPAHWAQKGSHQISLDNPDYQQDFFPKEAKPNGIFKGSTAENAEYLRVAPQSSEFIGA

Compound	IC50 [1] [nM]	IC50 [2] [µM]
O=C1Nc2ccc(C(=O)O)cc2C1=Cc1cc2cc(OCCN3CCCC3)ccc2[nH]1 [IN-022, 2-oxo-3-[5-(2-pyrrolidin-1-yl-ethoxy)-1H-indol-2-ylmethylene]-2,3-dihydro-1H-indole-5-carboxylic acid]	140	> 20
CN(C)S(=O)(=O)c1ccc2c(c1)C(=Cc1cc3cc(OCCN4CCCC4)ccc3[nH]1)C(=O)N2 [IN-042, 2-oxo-3-[5-(2-pyrrolidin-1-yl-ethoxy)-1H-indol-2-ylmethylene]-2,3-dihydro-1H-indole-5-sulfonic acid dimethylamide]	1340	7.84
O=C1Nc2cc(C(=O)O)ccc2C1=Cc1cc2cc(OCCN3CCOCC3)ccc2[nH]1 [IN-031, 3-[5-(2-morpholin-4-yl-ethoxy)-1H-indol-2-ylmethylene]-2-oxo-2,3-dihydro-1H-indole-6-carboxylic acid]	530	> 20
CN(C)CCOc1ccc2[nH]c(C=C3C(=O)Nc4ccc(-c5ccccc5)cc43)cc2c1 [IN-005, 3-[5-(2-dimethylamino-ethoxy)-1H-indol-2-ylmethylene]-5-phenyl-1,3-dihydro-indol-2-one]	310	16.3
CN(C)CCOc1ccc2[nH]c(C=C3C(=O)Nc4cc(-c5ccccc5)ccc43)cc2c1 [IN-012, 3-[5-(2-dimethylamino-ethoxy)-1H-indol-2-ylmethylene]-6-phenyl-1,3-dihydro-indol-2-one]	1950	> 100
CN(C)S(=O)(=O)c1ccc2c(c1)C(=Cc1c[nH]c3ccccc13)C(=O)N2 [IN-072, 3-(1H-indol-3-ylmethylene)-2-oxo-2,3-dihydro-1H-indole-5-sulfonic acid dimethylamide]	> 20000	> 100
CNS(=O)(=O)c1ccc2c(c1)C(=Cc1c[nH]c3ccccc13)C(=O)N2 [IN-068, 3-(1H-indol-3-ylmethylene)-2-oxo-2,3-dihydro-1H-indole-5-sulfonic acid methylamide]	> 20000	> 100
O=C1Nc2cc(-c3ccc(F)cc3)ccc2C1=Cc1cc2cc(OCCN3CCCC3)ccc2[nH]1 [IN-029, 6-(4-fluoro-phenyl)-3-[5-(2-pyrrolidin-1-yl-ethoxy)-1H-indol-2-ylmethylene]-1,3-dihydro-indol-2-one]	760	> 20
CNS(=O)(=O)c1ccc2c(c1)C(=Cc1cc3ccccc3[nH]1)C(=O)N2 [IN-071, 3-(1H-indol-2-ylmethylene)-2-oxo-2,3-dihydro-1H-indole-5-sulfonic acid methylamide]	11500	22
COc1ccc(-c2ccc3c(c2)NC(=O)C3=Cc2cc3cc(OCCN4CCOCC4)ccc3[nH]2)cc1 [IN-035, 6-(4-methoxy-phenyl)-3-[5-(2-morpholin-4-yl-ethoxy)-1H-indol-2-ylmethylene]-1,3-dihydro-indol-2-one]	> 20000	> 20
CCN(CC)CCOc1ccc2[nH]c(C=C3C(=O)Nc4ccc(-c5ccccc5)cc43)cc2c1 [IN-019, 3-[5-(2-diethylamino-ethoxy)-1H-indol-2-ylmethylene]-5-phenyl-1,3-dihydro-indol-2-one]	160	9.55
CCN(CC)CCCc1ccc2[nH]c(C=C3C(=O)Nc4ccccc43)cc2c1 [IN-001, 3-[5-(3-diethylamino-propyl)-1H-indol-2-ylmethylene]-1,3-dihydro-indol-2-one]	860	> 100
O=C1Nc2ccc(Br)cc2C1=Cc1cc2cc(OCCN3CCOCC3)ccc2[nH]1 [IN-008, 5-bromo-3-[5-(2-morpholin-4-yl-ethoxy)-1H-indol-2-ylmethylene]-1,3-dihydro-indol-2-one]	220	1.97
COc1ccccc1-c1ccc2c(c1)NC(=O)C2=Cc1cc2cc(OCCN3CCOCC3)ccc2[nH]1 [IN-037, 6-(2-methoxy-phenyl)-3-[5-(2-morpholin-4-yl-ethoxy)-1H-indol-2-ylmethylene]-1,3-dihydro-indol-2-one]	4380	> 20
O=C1Nc2ccc(S(=O)(=O)Nc3ccccc3)cc2C1=Cc1cc2cc(OCCN3CCCC3)ccc2[nH]1 [IN-044, 2-oxo-3-[5-(2-pyrrolidin-1-yl-ethoxy)-1H-indol-2-ylmethylene]-2,3-dihydro-1H-indole-5-sulfonic acid phenylamide]	180	1.69
